Here are results for nine compounds from US11230525B2, “Organic sulfur compound, method for preparing same, and pharmaceutical composition for preventing or treating cancer or an inflammatory disease, containing same as active ingredient” (SOOKMYUNG WOMENS UNIVERSITY INDUSTRY-ACADEMIC COOPERATION …, priority 2016, dated 2022).

The test system of data set [1] is lung cancer cell line (NCl-H23). Nature of the data set: Cancer proliferation inhibitory activity (SRB, GI50), NCI-H23. Type of data set: cell-based. As to conditions: Homo sapiens, 48 hours. The source says: (§1) Particularly, the cancer proliferation inhibitory activity of the compounds of comparative examples (Ajoene and the compounds isosteric to Ajoene wherein R1 is allyl or benzyl) and the compounds of examples of the present invention (the compounds not isosteric to Ajoene wherein R^1 is phenyl) was investigated in human cancer cell lines (renal cancer cell line (ACHN), breast cancer cell line (MDA-MB-231), colorectal cancer cell line (HCT-15), prostate cancer cell line (PC-3), gastric cancer cell line (NUGC-3) and lung cancer cell line (NCl-H23)).
(§2) At this time, the cancer cell lines (renal cancer cell line (ACHN), breast cancer cell line (MDA-MB-231), colorectal cancer cell line (HCT-15), prostate cancer cell line (PC-3), gastric cancer cell line (NUGC-3) and lung cancer cell line (NCl-H23)) above were purchased from American Type Culture Collection (Manassas, Va., USA). Cells were cultured in RPMI 1640 supplemented with 10% fetal bovine serum, which were maintained 37° C. under 5% CO2 wet atmosphere. The cells were distributed in a 96-well plate, which was not treated (treated only with 0.1% DMSO) or treated with the compounds of examples of the present (0.1 μM to 10 μM). 48 hours later, the cells were fixed in 50% trichloroacetic acid, followed by staining with 1% acetic acid containing 0.4% sulphorodamine B dissolved therein. The non-conjugated dye was removed by washing with 1% acetic acid, and the protein conjugated dye was extracted with 10 mM Tris base (pH 10.5). Then, OD540 was measured with VersaMax microplate reader (Molecular devices, Sunnyvale, Calif., USA). GI50 was calculated by using GraphPad Prism software (GraphPad Software, Inc., San Diego, Calif., USA).
(§3) Based on the results obtained in experimental example 1-1 above, the derivatives wherein R^1 is phenyl were additionally synthesized. The cancer proliferation inhibitory activity of the derivatives was evaluated by the same manner as described in experimental example 1-1.

The test system of data set [2] is prostate cancer cell line (PC-3). As to the kind of experiment: Cancer proliferation inhibitory activity (SRB, GI50), PC-3. The class given is cell-based. As to conditions: Homo sapiens, 48 hours.
Text: as §1, §2, §3

Data set [3] deals with PC-3 cells, human prostate cancer cells. As to the kind of experiment: Anticancer activity in prostate cancer xenograft model. Type of data set: in vivo, mice. The settings on record: 50 mg/kg (SAHA 100 mg/kg) once a day for 16 days, compared with the non-treated group. As to the method: Particularly, 9×10^6 PC-3 cells, human prostate cancer cells, were inoculated subcutaneously to the right side of female BALB/c nu/nu mice at 5 weeks of age (Nara Biotech, Seoul, Republic of Korea).
(§4) When the tumor size reached 40-60 mm^3, the mice were randomly grouped (4 mice per group), which were the non-treated group (10% dimethylacetamide, 10% tween 80 and 80% distilled water), the groups treated with the compounds of comparative examples 1 and 2 (Ajoene, 50 mg/kg), the groups treated with the compounds of examples 18 and 32 (50 mg/kg), and the group treated with the positive control SAHA (Vorinostat, 100 mg/kg). The treatment was performed once a day for 16 days in total. During the treatment, the tumor size was measured with a vernier caliper, followed by evaluation according to the following formula: length (mm)×width (mm)×height (mm)/2. The weights were measured regularly.
(§5) Upon completion of the treatment (16 days later), the mice were sacrificed and the tumor weights were measured. All the experiments were performed according to the experiment protocol approved by Institutional Animal care and Use Committee (IACUC), Korea Research Institute of Bioscience and Biotechnology (KRIBB).

In data set [4] the test system is breast cancer cell line (MDA-MB-231). As to the kind of experiment: Cancer proliferation inhibitory activity (SRB, GI50), MDA-MB-231. Type of data set: cell-based. The settings on record: Homo sapiens, 48 hours.
Text: as §1, §2, §3

Data set [5] concerns colorectal cancer cell line (HCT-15). As to the kind of experiment: Cancer proliferation inhibitory activity (SRB, GI50), HCT-15. The class given is cell-based. As to conditions: Homo sapiens, 48 hours.
Text: as §1, §2, §3

The next data set deals with T1, HDAC 8 (Homo sapiens, UniProt Q9BY41).
T1 sequence (Q9BY41 1-377): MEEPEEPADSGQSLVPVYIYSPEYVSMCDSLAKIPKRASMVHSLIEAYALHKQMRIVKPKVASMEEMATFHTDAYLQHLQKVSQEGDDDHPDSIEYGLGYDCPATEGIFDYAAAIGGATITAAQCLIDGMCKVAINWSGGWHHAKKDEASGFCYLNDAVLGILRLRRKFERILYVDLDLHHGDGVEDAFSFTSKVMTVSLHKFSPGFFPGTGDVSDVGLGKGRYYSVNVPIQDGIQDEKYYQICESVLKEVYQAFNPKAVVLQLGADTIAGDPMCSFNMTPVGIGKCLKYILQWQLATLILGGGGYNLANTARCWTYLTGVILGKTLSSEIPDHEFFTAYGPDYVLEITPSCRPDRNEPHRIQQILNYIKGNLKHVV
Nature of the data set: HDAC enzyme fluorescence assay, HDAC 8. The class given is biochemical. On the set-up: Inhibitory activity (%) HDAC 8: concentration or dose not given beside the values. The settings on record: (HDAC inhibitory activity of example compound/HDAC inhibitory activity of SAHA) × 100. The method, then:
Particularly, HDAC enzyme analysis was performed based on a uniform fluorescence emission assay. First, the compounds of examples of the present invention or comparative example 1 were diluted at different concentrations, which were treated to the analysis buffer containing 25 mM HEPES (pH 8.0), 137 mM NaCl, 1 mM MgCl2 and 2.7 mM KCL, followed by culture of the recombinant HDAC enzyme. 10 minutes later, Boc-Lys(acetyl)-AMC, the fluorescence inducing substrate, was added thereto, followed by further culture at 37° C. At this time, the concentration of the fluorescence inducing substrate and the culture time were adjusted according to the isotypes of the HDAC enzyme. The reaction was terminated by treating trypsin at room temperature for 20 minutes. The fluorescence intensity was measured using a fluorescence analyzer at an excitation wavelength of 380 nm and an emission wavelength of 460 nm, respectively. The inhibition rate was calculated from the measured fluorescence intensity of each well with comparing to that of the control well. IC50 of the compound was calculated by analyzing the dose-reaction inhibition curve.
The HDAC 8 inhibitory activity was presented as percentage of relative activity by the inhibitory activity of SAHA (Vorinostat) used as a reference compound.

Data set [6] can be described thus: Body weight of mice in prostate cancer xenograft model. The settings on record: 50 mg/kg (SAHA 100 mg/kg) once a day for 16 days. The class given is in vivo. As to the method:
as §4, §5

Data set [7] deals with renal cancer cell line (ACHN). Nature of the data set: Cancer proliferation inhibitory activity (SRB, GI50), ACHN. The class given is cell-based. As to conditions: Homo sapiens, 48 hours.
Text: as §1, §2, §3

The subject of data set [8] is gastric cancer cell line (NUGC-3). Nature of the data set: Cancer proliferation inhibitory activity (SRB, GI50), NUGC-3. Type of data set: cell-based. The settings on record: Homo sapiens, 48 hours.
Text: as §1, §2, §3

Structures are written as SMILES. Bounds are passed on as bounds.

As usually defined, the GI50 is the concentration giving 50% growth inhibition. In the case of `C=CCSS/C=C\C[S+]([O-])CC=C` (stereo not shown) [Comparative Example 2, Z-Ajoene, reference compound], the GI50 in data set [1], in data set [2], in data set [4], in data set [5], in data set [7] and in data set [8] was > 10 µM each time. In addition, the “tumor size / cancer proliferation (FIGS. 2, 3)” value in [3] is “cancer proliferation was inhibited”. Besides, the “Inhibitory activity (%) HDAC 8” value on HDAC 8 is 52.5%. The “changes in weight of mice / visible toxicity (FIG. 1)” value in [6] is reported as “only normal weight increases were observed”.
For `C=CCSS/C=C/C[S+]([O-])CC=C` (stereo not shown) [Comparative Example 1, E-Ajoene, reference compound], in data set [3], the “tumor size / cancer proliferation (FIGS. 2, 3)” value is “cancer proliferation was inhibited”. In addition, the “Inhibitory activity (%) HDAC 8” value on HDAC 8 is recorded as 73.4%. Besides, the “changes in weight of mice / visible toxicity (FIG. 1)” value in data set [6] is recorded as “only normal weight increases were observed”.
On to `O=C(CCCCCCC(=O)Nc1ccccc1)NO` [SAHA, reference compound], for which, in [3], the “tumor size / cancer proliferation (FIGS. 2, 3)” value was “cancer proliferation was inhibited”.
Turning to `COc1ccc([S+]([O-])C/C=C/SSCc2ccc(Cl)cc2)cc1` (stereo not shown) [Example 35, (E)-1-(4-chlorobenzyl)-2-(3-(4-methoxyphenylsulfinyl)prop-1-enyl)disulfane], the 50% growth inhibitory concentration (GI50) in [1] worked out at 0.97 µM; in [2], 1.05 µM; in data set [4], 1.16 µM; in data set [5], 0.88 µM; in data set [7] it was 0.88 µM; in data set [8], 1.08 µM. Besides, the “Inhibitory activity (%) HDAC 8” value on HDAC 8 is recorded as 107.2%.
Regarding `COc1ccc([S+]([O-])C/C=C\SSCc2ccc(Cl)c(Cl)c2)cc1` (stereo not shown) [Example 38, (Z)-1-(3,4-dichlorobenzyl)-2-(3-(4-methoxyphenylsulfinyl)prop-1-enyl)disulfane], the GI50 in [1] came out at 3.33 µM; in [2] it was 4.36 µM; in [4], 2.07 µM; in data set [5], 7.18 µM; in data set [7] it was 5.19 µM; in data set [8] it was 4.61 µM. The “Inhibitory activity (%) HDAC 8” value at HDAC 8 is listed as 55.5%.
For the compound `COc1cccc([S+]([O-])C/C=C\SSCc2ccccc2)c1` (stereo not shown) [Example 20, (Z)-1-benzyl-2-(3-(3-methoxyphenylsulfinyl)prop-1-enyl)disulfane], the 50% growth inhibitory concentration (GI50) in data set [1] came to 3.46 µM; in [2] it was 2.96 µM; in data set [4], 4.34 µM; in data set [5], 2.6 µM; in [7] it was 3.72 µM; in [8], 3.78 µM. For the same compound, the “Inhibitory activity (%) HDAC 8” value at HDAC 8 is listed as 114.3%.
With `COc1ccc([S+]([O-])C/C=C/SSCc2ccc(F)cc2)cc1` (stereo not shown) [Example 33, (E)-1-(4-fluorobenzyl)-2-(3-(4-methoxyphenylsulfinyl)prop-1-enyl)disulfane], the GI50 in data set [1] was 0.27 µM; in data set [2], 0.29 µM; in data set [4], 0.16 µM; in data set [5], 0.25 µM; in data set [7], 0.17 µM; in [8], 0.24 µM. For the same compound, the “Inhibitory activity (%) HDAC 8” value on HDAC 8 is on record as 111.7%.
For the compound `COc1cccc([S+]([O-])C/C=C\SSCc2ccc(Cl)c(Cl)c2)c1` (stereo not shown) [Example 26, (Z)-1-(3,4-dichlorobenzyl)-2-(3-(3-methoxyphenylsulfinyl)prop-1-enyl)disulfane], the 50% growth inhibitory concentration (GI50) in data set [1] was > 10 µM; in data set [2], 6.67 µM; in data set [4], > 10 µM; in [5] it was 7.25 µM; in [7], > 10 µM; in data set [8] it was 3.22 µM. The “Inhibitory activity (%) HDAC 8” value on HDAC 8 turned out to be 161.9%.
`COc1ccc([S+]([O-])C/C=C/SSCc2ccc(Cl)c(Cl)c2)cc1` (stereo not shown) [Example 37, (E)-1-(3,4-dichlorobenzyl)-2-(3-(4-methoxyphenylsulfinyl)prop-1-enyl)disulfane]: the GI50 amounted to 3.09 µM in data set [1]; 5.17 µM in [2]; 4.19 µM in data set [4]; 3.32 µM in data set [5]; 3.75 µM in [7]; 5.48 µM in data set [8]. Moreover, the “Inhibitory activity (%) HDAC 8” value at HDAC 8 turned out to be 106.1%.
